Results published in patent publication US9889113B2, “Method for reversing, preventing, delaying or stabilizing soft tissue calcification” (Panion & BF Biotech, Inc., priority 2006, dated 2018).

System: patients with end stage renal disease (ESRD)
Experiment: Treatment-emergent adverse events in the dose-ranging study
Format: in vivo, human
Text: Objectives: (1) To determine the effect of ferric citrate at doses of 2, 4 and 6 g daily, administered TID (three times a day), for 28 days on serum phosphate (PO4) levels in patients with end stage renal disease (ESRD). (2) To evaluate the safety of ferric citrate at doses of 2, 4, 6 g daily, administered TID, for 28 days in patients with ESRD.
Study Design: Randomized, double-blind, placebo-controlled, dose-ranging study to assess the effect of ferric citrate on serum phosphate concentrations in patients with ESRD on hemodialysis. Patients are assessed at Study Days 14 and 28 for effectiveness as measured by serum phosphate concentrations. Patients who received one or more doses of study medication are also assessed for safety.

SMILES: O=C([O-])CC(O)(CC(=O)[O-])C(=O)[O-].[Fe+3] [ferric citrate]
- Abdominal Pain (Preferred Term): # Event (2 g/day (N = 33)): 0
- Abdominal Pain (Preferred Term): (%) (2 g/day (N = 33)): (0.0) %
- Diarrhea (Preferred Term): # Event (2 g/day (N = 33)): 3
- Diarrhea (Preferred Term): (%) (2 g/day (N = 33)): (9.1) %
- GI Disorder, Definitely (relationship): # Event (2 g/day (N = 33)): 0
- GI Disorder, Definitely (relationship): (%) (2 g/day (N = 33)): (0.0) %
- GI Disorder, Possibly (relationship): # Event (2 g/day (N = 33)): 3
- GI Disorder, Possibly (relationship): (%) (2 g/day (N = 33)): (9.1) %
- GI Disorder, Probably (relationship): # Event (2 g/day (N = 33)): 2
- GI Disorder, Probably (relationship): (%) (2 g/day (N = 33)): (6.1) %
- GI Disorders (System Organ Class): # Event (2 g/day (N = 33)): 8
- GI Disorders (System Organ Class): (%) (2 g/day (N = 33)): (24.2) %
- GI Disorders, Mild (severity): # Event (2 g/day (N = 33)): 6
- GI Disorders, Mild (severity): (%) (2 g/day (N = 33)): (18.2) %
- General Disorders (System Organ Class): # Event (2 g/day (N = 33)): 4
- General Disorders (System Organ Class): (%) (2 g/day (N = 33)): (12.1) %
- Infections and Infestations (System Organ Class): # Event (2 g/day (N = 33)): 0
- Infections and Infestations (System Organ Class): (%) (2 g/day (N = 33)): (0.0) %
- Skin and SC Tissue Disorders (System Organ Class): # Event (2 g/day (N = 33)): 3
- Skin and SC Tissue Disorders (System Organ Class): (%) (2 g/day (N = 33)): (9.1) %
- T#at1AE, Definitely (relationship): # Event (2 g/day (N = 33)): 0
- T#at1AE, Definitely (relationship): (%) (2 g/day (N = 33)): (0.0) %
- T#at1AE, Mild (severity): # Event (2 g/day (N = 33)): 13
- T#at1AE, Mild (severity): (%) (2 g/day (N = 33)): (39.4) %
- T#at1AE, Moderate (severity): # Event (2 g/day (N = 33)): 6
- T#at1AE, Moderate (severity): (%) (2 g/day (N = 33)): (18.2) %
- T#at1AE, Possibly (relationship): # Event (2 g/day (N = 33)): 5
- T#at1AE, Possibly (relationship): (%) (2 g/day (N = 33)): (15.2) %
- T#at1AE, Probably (relationship): # Event (2 g/day (N = 33)): 2
- T#at1AE, Probably (relationship): (%) (2 g/day (N = 33)): (6.1) %
- T#at1AE, Severe (severity): # Event (2 g/day (N = 33)): 0
- T#at1AE, Severe (severity): (%) (2 g/day (N = 33)): (0.0) %
- Total number of subjects with at least one adverse event (T#at1AE): # Event (2 g/day (N = 33)): 16
- Total number of subjects with at least one adverse event (T#at1AE): (%) (2 g/day (N = 33)): (48.5) %
- Abdominal Pain (Preferred Term): # Event (4 g/day (N = 34)): 4
- Abdominal Pain (Preferred Term): (%) (4 g/day (N = 34)): (11.8) %
- Diarrhea (Preferred Term): # Event (4 g/day (N = 34)): 1
- Diarrhea (Preferred Term): (%) (4 g/day (N = 34)): (2.9) %
- GI Disorder, Definitely (relationship): # Event (4 g/day (N = 34)): 0
- GI Disorder, Definitely (relationship): (%) (4 g/day (N = 34)): (0.0) %
- GI Disorder, Possibly (relationship): # Event (4 g/day (N = 34)): 6
- GI Disorder, Possibly (relationship): (%) (4 g/day (N = 34)): (17.6) %
- GI Disorder, Probably (relationship): # Event (4 g/day (N = 34)): 2
- GI Disorder, Probably (relationship): (%) (4 g/day (N = 34)): (5.9) %
- GI Disorders (System Organ Class): # Event (4 g/day (N = 34)): 10
- GI Disorders (System Organ Class): (%) (4 g/day (N = 34)): (29.4) %
- GI Disorders, Mild (severity): # Event (4 g/day (N = 34)): 8
- GI Disorders, Mild (severity): (%) (4 g/day (N = 34)): (23.5) %
- General Disorders (System Organ Class): # Event (4 g/day (N = 34)): 2
- General Disorders (System Organ Class): (%) (4 g/day (N = 34)): (5.9) %
- Infections and Infestations (System Organ Class): # Event (4 g/day (N = 34)): 3
- Infections and Infestations (System Organ Class): (%) (4 g/day (N = 34)): (8.8) %
- Skin and SC Tissue Disorders (System Organ Class): # Event (4 g/day (N = 34)): 0
- Skin and SC Tissue Disorders (System Organ Class): (%) (4 g/day (N = 34)): (0.0) %
- T#at1AE, Definitely (relationship): # Event (4 g/day (N = 34)): 0
- T#at1AE, Definitely (relationship): (%) (4 g/day (N = 34)): (0.0) %
- T#at1AE, Mild (severity): # Event (4 g/day (N = 34)): 9
- T#at1AE, Mild (severity): (%) (4 g/day (N = 34)): (26.5) %
- T#at1AE, Moderate (severity): # Event (4 g/day (N = 34)): 3
- T#at1AE, Moderate (severity): (%) (4 g/day (N = 34)): (8.8) %
- T#at1AE, Possibly (relationship): # Event (4 g/day (N = 34)): 6
- T#at1AE, Possibly (relationship): (%) (4 g/day (N = 34)): (17.6) %
- T#at1AE, Probably (relationship): # Event (4 g/day (N = 34)): 2
- T#at1AE, Probably (relationship): (%) (4 g/day (N = 34)): (5.9) %
- T#at1AE, Severe (severity): # Event (4 g/day (N = 34)): 2
- T#at1AE, Severe (severity): (%) (4 g/day (N = 34)): (5.9) %
- Total number of subjects with at least one adverse event (T#at1AE): # Event (4 g/day (N = 34)): 12
- Total number of subjects with at least one adverse event (T#at1AE): (%) (4 g/day (N = 34)): (35.3) %
- Abdominal Pain (Preferred Term): # Event (6 g/day (N = 33)): 2
- Abdominal Pain (Preferred Term): (%) (6 g/day (N = 33)): (6.1) %
- Diarrhea (Preferred Term): # Event (6 g/day (N = 33)): 1
- Diarrhea (Preferred Term): (%) (6 g/day (N = 33)): (3.0) %
- GI Disorder, Definitely (relationship): # Event (6 g/day (N = 33)): 0
- GI Disorder, Definitely (relationship): (%) (6 g/day (N = 33)): (0.0) %
- GI Disorder, Possibly (relationship): # Event (6 g/day (N = 33)): 1
- GI Disorder, Possibly (relationship): (%) (6 g/day (N = 33)): (3.0) %
- GI Disorder, Probably (relationship): # Event (6 g/day (N = 33)): 5
- GI Disorder, Probably (relationship): (%) (6 g/day (N = 33)): (15.2) %
- GI Disorders (System Organ Class): # Event (6 g/day (N = 33)): 10
- GI Disorders (System Organ Class): (%) (6 g/day (N = 33)): (30.3) %
- GI Disorders, Mild (severity): # Event (6 g/day (N = 33)): 9
- GI Disorders, Mild (severity): (%) (6 g/day (N = 33)): (27.3) %
- General Disorders (System Organ Class): # Event (6 g/day (N = 33)): 4
- General Disorders (System Organ Class): (%) (6 g/day (N = 33)): (12.1) %
- Infections and Infestations (System Organ Class): # Event (6 g/day (N = 33)): 1
- Infections and Infestations (System Organ Class): (%) (6 g/day (N = 33)): (3.0) %
- Skin and SC Tissue Disorders (System Organ Class): # Event (6 g/day (N = 33)): 4
- Skin and SC Tissue Disorders (System Organ Class): (%) (6 g/day (N = 33)): (12.1) %
- T#at1AE, Definitely (relationship): # Event (6 g/day (N = 33)): 0
- T#at1AE, Definitely (relationship): (%) (6 g/day (N = 33)): (0.0) %
- T#at1AE, Mild (severity): # Event (6 g/day (N = 33)): 14
- T#at1AE, Mild (severity): (%) (6 g/day (N = 33)): (42.4) %
- T#at1AE, Moderate (severity): # Event (6 g/day (N = 33)): 2
- T#at1AE, Moderate (severity): (%) (6 g/day (N = 33)): (6.1) %
- T#at1AE, Possibly (relationship): # Event (6 g/day (N = 33)): 2
- T#at1AE, Possibly (relationship): (%) (6 g/day (N = 33)): (6.1) %
- T#at1AE, Probably (relationship): # Event (6 g/day (N = 33)): 5
- T#at1AE, Probably (relationship): (%) (6 g/day (N = 33)): (15.2) %
- T#at1AE, Severe (severity): # Event (6 g/day (N = 33)): 1
- T#at1AE, Severe (severity): (%) (6 g/day (N = 33)): (3.0) %
- Total number of subjects with at least one adverse event (T#at1AE): # Event (6 g/day (N = 33)): 17
- Total number of subjects with at least one adverse event (T#at1AE): (%) (6 g/day (N = 33)): (51.5) %
- side effect (Phase II study): minimum side effect
